{
  "source": "patent US8563516B2",
  "about": "“Foxp3 peptide vaccine” (OncoTherapy Science, Inc., priority 2007, dated 2013)",
  "type_in_all_cases": "cell-based, human",
  "key": {"peptide-pulsed T2 cells [1]": {"tested_on": "peptide-pulsed T2 cells", "assay": "IFN-gamma ELISA on expanded CTL lines, HLA-A02 peptides", "details": "expanded cells of positive wells, FIG. 3A-D, 3F", "description": "CTLs were expanded in culture using a similar method as reported by Riddell, et al. (Walter et al., N Engl J Med 333(16): 1038-44, 1995; Riddell et al., Nat Med 2(2): 216-23, 1996 February). A total of 5×10^4 CTLs were resuspended in 25 ml of AIM-V/5% AS with 2 kinds of human B-lymphoblastoid cell lines, inactivated with MMC, in the presence of 40 ng/ml of anti-CD3 monoclonal antibody (Pharmingen). One day after initiating the cultures, 120 IU/ml of IL-2 were added to the cultures. The cultures were fed with fresh AIM-V/5% AS containing 30 IU/ml of IL-2 on days 5, 8 and 11.\n(§1) To examine the specific CTL activity, IFN-gamma ELISPOT assay and IFN-gamma ELISA were performed. Briefly, peptide-pulsed A24-LCL, T2 cell (1×10^4/well) or the cells endogenously expressing Foxp3 and HLA molecule was prepared as a stimulator cells. Cultured CTL lines in 48 wells were used as a responder cells. IFN-gamma ELISPOT assay and IFN-gamma ELISA were performed under manufacture procedure.\nThese cells in the positive wells were expanded and performed IFN-gamma ELISA assay."}, "peptide pulsed T2 cells": {"tested_on": "peptide pulsed T2 cells", "assay": "IFN-gamma ELISPOT: CTL line induced with Foxp3-9-252-WT against T2 cells pulsed with substituted peptide", "details": "FIG. 7A", "description": "IFN-gamma ELISPOT assay was performed using CTL line induced with Foxp3-9-252-WT peptide as responder cells and T2 cells pulsed Foxp3-9-252-WT or Foxp3-9-252-9V peptide as stimulator cells, respectively. T2 cells without peptide pulse were prepared as control. […] IFN-gamma ELISA assay was performed using CTL line induced with Foxp3-9-252-WT peptide as responder cells (1×10^5 cells/well) and Foxp3-9-252-WT (-solid circle-), Foxp3-9-252-9V (-open circle-) or HIV-A02 (-solid triangle-) peptide pulsed T2 cells as stimulator cells (1×10^4 cells/well). Peptide pulse of stimulator cells was conducted at 37 degree Celsius for 2 hours in each kind of peptide and peptide concentration.\nas §1\nAnd then the present inventers examined whether peptide-pulsed stimulator cells using these substitutions were recognized by CTLs generated with Foxp3-9-252-WT peptide."}, "[2]": {"tested_on": "293T that transfected both Foxp3 and HLA-A24", "assay": "Specific CTL activity against target cells expressing Foxp3 and HLA-A24", "description": "as §1\n(§2) The established CTL clone raised against these peptides were examined for their ability to recognize the target cells endogenously expressing Foxp3 and HLA-A*24 or 02. Specific CTL activity against 293T transfected both full length of Foxp3 gene and HLA-A*24 or 02 molecule, which is specific model for the target cells endogenously express Foxp3 and HLA-A*24 or 02, was tested using the CTL lines raised by Foxp3-A02-9-390 (SEQ ID NO: 15) and Foxp3-A02-9-252 (SEQ ID NO: 17) as effector cells. […] Furthermore, these peptides were epitope peptides, which can utilize vaccine targeting Foxp3 expressed T-regs."}, "[3]": {"tested_on": "293T that transfected both Foxp3 and HLA-A02", "assay": "Specific CTL activity against target cells expressing Foxp3 and HLA-A02", "description": "as §1, §2"}, "[4]": {"tested_on": "peptide-pulsed A24LCL cells or T2 cells", "assay": "In vitro CTL induction by peptide-loaded dendritic cells (summary statements)", "description": "Confirmation of CTL inducibility can be accomplished by inducing antigen-presenting cells carrying human MHC antigens (for example, B-lymphocytes, macrophages, and dendritic cells), or more specifically dendritic cells derived from human peripheral blood mononuclear leukocytes, and after stimulation with the peptides, mixing with CD8-positive cells, and then measuring the IFN-gamma produced and released by CTL against the target cells. As the reaction system, transgenic animals that have been produced to express a human HLA antigen (for example, those described in BenMohamed L, Krishnan R, Longmate J, Auge C, Low L, Primus J, Diamond D J, Hum Immunol 61(8): 764-79, 2000 August, Related Articles, Books, Linkout Induction of CTL response by a minimal epitope vaccine in HLA A*0201/DR1 transgenic mice: dependence on HLA class II restricted T(H) response) can be used. For example, the target cells can be radiolabeled with ^51Cr and such, and cytotoxic activity can be calculated from radioactivity released from the target cells. Alternatively, it can be examined by measuring IFN-gamma produced and released by CTL in the presence of antigen-presenting cells that carry immobilized peptides, and visualizing the inhibition zone on the media using anti-IFN-gamma monoclonal antibodies.\n(§3) Monocyte-derived dendritic cells (DCs) were used as antigen-presenting cells (APCs) to induce CTL responses against peptides presented on HLA. DCs were generated in vitro as described elsewhere (Horiguchi S. et al. Cancer Res. 59:2950-6). Specifically, peripheral blood mononuclear cells (PBMCs) isolated from normal volunteer (HLA-A*2402 and/or HLA-A*0201) with Ficoll-Plaque (Pharmacia) solution were separated by adherence to plastic tissue culture dish (Becton Dickinson) so as to enrich them for the monocyte fraction. The monocyte-enriched population was cultured in the presence of 1000 U/ml of GM-CSF (R&D System) and 1000 U/ml of IL-4 (R&D System) in AIM-V medium (Invitrogen) containing 2% heat-inactivated autologous serum (AS). After 7 days in the culture, the cytokine-generated DCs were pulsed with 20 mcg/ml of the synthesized peptides in the presence of 3 mcg/ml of beta2-microglobulin for 4 hrs at 20 degrees C. in AIM-V medium. These peptide-pulsed DCs were then inactivated with mitomycin C (MMC) (30 mcg/ml for 30 mins) and mixed at a 1:20 ratio with autologous CD8+ T cells, obtained by positive selection with CD8 Positive Isolation Kit (Dynal). These cultures were set up in 48-well plates (Corning); each well contained 1.5×10^4 peptide-pulsed DCs, 3×10^5 CD8+ T cells and 10 ng/ml of IL-7 (R&D System) in 0.5 ml of AIM-V/2% AS. Three days later, these cultures were supplemented with IL-2 (CHIRON) to a final concentration of 20 IU/ml. On day 7 and 14, the T cells were further restimulated with the peptide-pulsed autologous DCs. The DCs were prepared each time through the same procedure described above. CTL activity was tested against peptide-pulsed A24LCL cells or T2 cells after the 3rd round of peptide stimulation on day 21.\nas §1"}, "peptide-pulsed T2 cells [5]": {"tested_on": "peptide-pulsed T2 cells", "assay": "IFN-gamma ELISPOT on CTLs induced with HLA-A0201 restricted Foxp3 peptides", "details": "FIG. 2A/2B/2C", "description": "as §3, §1\nResulting CTLs showing detectable specific CTL activity were shown in FIG. 2A, FIG. 2B and FIG. 2C when performed by IFN-gamma ELISPOT assay."}},
  "data": [
    {"sequence": "KLSAMQAHL (peptide vaccine) [SEQ ID NO 17]", "values": [
      {"measurement": "IFN-gamma production of CTL lines stimulated with peptide, compared with the control", "setting": "peptide-pulsed T2 cells [1]", "value": "potent IFN-gamma production"},
      {"measurement": "IFN-gamma production of Foxp3-9-252-WT induced CTLs against peptide pulsed T2 cells", "setting": "peptide pulsed T2 cells", "value": "produced IFN-gamma"},
      {"measurement": "specific CTL activity of CTL lines raised by peptide", "setting": "[2]; against 293T transfected with both Foxp3 and HLA-A24, FIG. 4C", "value": "high specific CTL activity"},
      {"measurement": "specific CTL activity against controls", "setting": "[2]; controls of FIG. 4C", "value": "did not show significant specific CTL activity"},
      {"measurement": "specific CTL activity of CTL lines raised by peptide", "setting": "[3]; against 293T transfected with both Foxp3 and HLA-A02, FIG. 4A/4B", "value": "high specific CTL activity"},
      {"measurement": "specific CTL activity against controls", "setting": "[3]; controls of FIG. 4A/4B", "value": "did not show significant specific CTL activity"},
      {"measurement": "specific CTL activity", "setting": "[4]; against peptide pulsed target cells", "value": "significant and specific CTL activity"},
      {"measurement": "establishment of CTLs", "setting": "[4]; in vitro stimulation of T-cells by DCs loaded with peptide", "value": "CTLs were successfully established"},
      {"measurement": "IFN-gamma production of CTLs stimulated with peptide, compared with the control", "setting": "peptide-pulsed T2 cells [5]", "value": "potent IFN-gamma production"}
    ]}
  ]
}
